Among the data in the supplement of paper PMC11368000 are POD vs vehicle values, retold here.

The first assay deals with 1531 (donor line of iPSC-derived cardiomyocytes). The assay is described as follows: POD (EC05) for decrease in beat frequency (negative chronotrope) vs vehicle; higher = less potent (higher point of departure). The following applies: exposure time: 90 min. As for the experimental part:
(§1)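 Human iPSC-derived cardiomyocytes from 16 donors were exposed for 90 min at 37 °C to each PFAS at 0.1, 1, 10 and 100 µM in 0.5% DMSO, 384-well plates. Kinetic Ca2+ flux (FLIPR) and Hoechst nuclei counts were normalised to vehicle wells and fitted with a hierarchical Bayesian Hill model to give donor-specific PODs: EC05 for beat-rate increase or decrease and for decay-to-rise ratio increase (QT proxy), EC95 for peak-frequency loss (asystole), EC10 for total cell number loss. 0.03 µM is the lower bound.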
In turn, `O=C(O)CCC(F)(F)C(F)(F)C(F)(F)C(F)(F)C(F)(F)F` [2H,2H,3H,3H-Perfluorooctanoic_acid] displayed a POD vs vehicle of 24.9 µM.
In turn, `O=C(O)C=C(C(F)(F)F)C(F)(F)F` [3,3-Bis(trifluoromethyl)-2-propenoic_acid] showed a POD vs vehicle above 100 µM.
In the case of `O=C(O)C=CC(F)(C(F)(F)F)C(F)(F)F` [3-(Perfluoroisopropyl)-2-propenoic_acid], the POD vs vehicle was above 100 µM.
In turn, `O=C(O)CCC(F)(F)C(F)(F)C(F)(F)C(F)(F)C(F)(F)C(F)(F)C(F)(F)F` [3-Perfluoroheptylpropanoic_acid] returned a POD vs vehicle of 80.7 µM.
For the molecule `O=C(O)CCC(F)(F)C(F)(F)C(F)(F)F` [3:3 Fluorotelomer carboxylic acid], the POD vs vehicle was above 100 µM.
As to `O=C(CC(=O)C(F)(F)C(F)(F)F)C(F)(F)F` [3H,3H-Perfluoro-2,4-hexanedione], the POD vs vehicle is above 100 µM.
With `OCCC(F)(F)C(F)(F)C(F)(F)C(F)(F)F` [4:2 Fluorotelomer alcohol], the POD vs vehicle is above 100 µM.
In turn, `O=S(=O)(O)CCC(F)(F)C(F)(F)C(F)(F)C(F)(F)F` [4:2 Fluorotelomer sulfonic acid] gave a POD vs vehicle above 100 µM.
Same read-out and setting: the same measure for `OCC(F)(F)C(F)(F)C(F)(F)C(F)(F)C(F)(F)C(F)(F)F` [6:1 Fluorotelomer alcohol]: above 100 µM; for `NC(=O)C(F)(F)C(F)(F)C(F)(F)F` [Heptafluorobutyramide]: above 100 µM.
Take `CN(CCO)S(=O)(=O)C(F)(F)C(F)(F)C(F)(F)C(F)(F)C(F)(F)C(F)(F)C(F)(F)C(F)(F)F` [N-Methyl-N-(2-hydroxyethyl)perfluorooctanesulfonamide]: the POD vs vehicle was above 100 µM.
The same measure, in the same setting: under `NC(=O)C(F)(F)C(F)(F)C(F)(F)C(F)(F)C(F)(F)C(F)(F)C(F)(F)F` [Perfluorooctanamide] stands above 100 µM; under `N=C(N)C(F)(F)C(F)(F)C(F)(F)C(F)(F)C(F)(F)C(F)(F)C(F)(F)F` [Perfluorooctanamidine], above 100 µM.

A further assay concerns 20032 (donor line of iPSC-derived cardiomyocytes). Described as above. The settings on record: exposure time: 90 min. As for the experimental part: as §1
`NC(=O)C(F)(F)C(F)(F)C(F)(F)C(F)F` had a POD vs vehicle above 100 µM.
Same read-out and setting: the same measure for `OCC(O)CC(F)(F)C(F)(F)C(F)(F)C(F)(F)C(F)(F)C(F)(F)C(F)(F)C(F)(F)F` (stereo not given) [1-(Perfluorofluorooctyl)propane-2,3-diol]: above 100 µM.
For `CC(O)C(F)(F)C(F)(F)F` (stereo not given) [1-Pentafluoroethylethanol], the POD vs vehicle was above 100 µM.
On the same count and under the same terms, under `OCC(F)(F)C(F)(F)C(F)(F)C(F)F` [1H,1H,5H-Perfluoropentanol] stands above 100 µM; under `O=S(=O)(OCC(F)(F)F)C(F)(F)C(F)(F)C(F)(F)C(F)(F)F` [2,2,2-Trifluoroethyl_perfluorobutanesulfonate], above 100 µM; under `O=C(O)C(F)(F)C(F)(F)C(F)F` [2,2,3,3,4,4-Hexafluorobutanoic_acid], above 100 µM.
The same measure, in the same setting: the same measure for `NC(O)(C(F)(F)F)C(F)(F)F` [2-Aminohexafluoropropan-2-ol]: 80.9 µM; for `O=C(O)CCC(F)(F)C(F)(F)C(F)(F)C(F)(F)C(F)(F)F` [2H,2H,3H,3H-Perfluorooctanoic_acid]: 29.8 µM.
The same measure, in the same setting: under `O=C(O)C=C(C(F)(F)F)C(F)(F)F` [3,3-Bis(trifluoromethyl)-2-propenoic_acid] stands above 100 µM; under `O=C(O)C=CC(F)(C(F)(F)F)C(F)(F)F` [3-(Perfluoroisopropyl)-2-propenoic_acid], above 100 µM; under `O=C(O)CCC(F)(F)C(F)(F)C(F)(F)C(F)(F)C(F)(F)C(F)(F)C(F)(F)F` [3-Perfluoroheptylpropanoic_acid], above 100 µM.
As for `O=C(O)CCC(F)(F)C(F)(F)C(F)(F)F` [3:3 Fluorotelomer carboxylic acid], the POD vs vehicle is above 100 µM.
Molecule `O=C(CC(=O)C(F)(F)C(F)(F)F)C(F)(F)F` [3H,3H-Perfluoro-2,4-hexanedione] yielded a POD vs vehicle above 100 µM.
For the molecule `OCCC(F)(F)C(F)(F)C(F)(F)C(F)(F)F` [4:2 Fluorotelomer alcohol], the POD vs vehicle is above 100 µM.
The same measure, in the same setting: the same measure for `O=S(=O)(O)CCC(F)(F)C(F)(F)C(F)(F)C(F)(F)F` [4:2 Fluorotelomer sulfonic acid]: above 100 µM; for `OCC(F)(F)C(F)(F)C(F)(F)C(F)(F)C(F)(F)C(F)(F)F` [6:1 Fluorotelomer alcohol]: above 100 µM; for `NC(=O)C(F)(F)C(F)(F)C(F)(F)F` [Heptafluorobutyramide]: above 100 µM.
Same read-out and setting: under `CN(CCO)S(=O)(=O)C(F)(F)C(F)(F)C(F)(F)C(F)(F)C(F)(F)C(F)(F)C(F)(F)C(F)(F)F` [N-Methyl-N-(2-hydroxyethyl)perfluorooctanesulfonamide] stands above 100 µM; under `NC(=O)C(F)(F)C(F)(F)C(F)(F)C(F)(F)C(F)(F)C(F)(F)C(F)(F)F` [Perfluorooctanamide], above 100 µM; under `N=C(N)C(F)(F)C(F)(F)C(F)(F)C(F)(F)C(F)(F)C(F)(F)C(F)(F)F` [Perfluorooctanamidine], above 100 µM.

The subject of another assay is 30145 (donor line of iPSC-derived cardiomyocytes). Described as above. The settings on record: exposure time: 90 min. How it is done: as §1
As to `NC(=O)C(F)(F)C(F)(F)C(F)(F)C(F)F`, the POD vs vehicle is above 100 µM.
Still for that read-out and setting: under `OCC(O)CC(F)(F)C(F)(F)C(F)(F)C(F)(F)C(F)(F)C(F)(F)C(F)(F)C(F)(F)F` (stereo not given) [1-(Perfluorofluorooctyl)propane-2,3-diol] stands above 100 µM; under `CC(O)C(F)(F)C(F)(F)F` (stereo not given) [1-Pentafluoroethylethanol], above 100 µM.
With `OCC(F)(F)C(F)(F)C(F)(F)C(F)F` [1H,1H,5H-Perfluoropentanol], the POD vs vehicle is above 100 µM.
The molecule `O=S(=O)(OCC(F)(F)F)C(F)(F)C(F)(F)C(F)(F)C(F)(F)F` [2,2,2-Trifluoroethyl_perfluorobutanesulfonate] displayed a POD vs vehicle above 100 µM.
As to `O=C(O)C(F)(F)C(F)(F)C(F)F` [2,2,3,3,4,4-Hexafluorobutanoic_acid], the POD vs vehicle was above 100 µM.
The molecule `NC(O)(C(F)(F)F)C(F)(F)F` [2-Aminohexafluoropropan-2-ol] displayed a POD vs vehicle above 100 µM.
Molecule `O=C(O)CCC(F)(F)C(F)(F)C(F)(F)C(F)(F)C(F)(F)F` [2H,2H,3H,3H-Perfluorooctanoic_acid] came in with a POD vs vehicle of 22.2 µM.
For the molecule `O=C(O)C=C(C(F)(F)F)C(F)(F)F` [3,3-Bis(trifluoromethyl)-2-propenoic_acid], the POD vs vehicle was above 100 µM.
`O=C(O)C=CC(F)(C(F)(F)F)C(F)(F)F` [3-(Perfluoroisopropyl)-2-propenoic_acid] returned a POD vs vehicle above 100 µM.
`O=C(O)CCC(F)(F)C(F)(F)C(F)(F)C(F)(F)C(F)(F)C(F)(F)C(F)(F)F` [3-Perfluoroheptylpropanoic_acid]: the POD vs vehicle was above 100 µM.
In the case of `O=C(O)CCC(F)(F)C(F)(F)C(F)(F)F` [3:3 Fluorotelomer carboxylic acid], the POD vs vehicle is above 100 µM.
The same measure, in the same setting: the same measure for `O=C(CC(=O)C(F)(F)C(F)(F)F)C(F)(F)F` [3H,3H-Perfluoro-2,4-hexanedione]: above 100 µM.
The same measure, in the same setting: the same measure for `OCCC(F)(F)C(F)(F)C(F)(F)C(F)(F)F` [4:2 Fluorotelomer alcohol]: above 100 µM; for `O=S(=O)(O)CCC(F)(F)C(F)(F)C(F)(F)C(F)(F)F` [4:2 Fluorotelomer sulfonic acid]: above 100 µM; for `OCC(F)(F)C(F)(F)C(F)(F)C(F)(F)C(F)(F)C(F)(F)F` [6:1 Fluorotelomer alcohol]: above 100 µM.
On the same count and under the same terms, under `NC(=O)C(F)(F)C(F)(F)C(F)(F)F` [Heptafluorobutyramide] stands above 100 µM.
